{
  "source": "patent US20080207952A1",
  "about": "“NOVEL THERAPEUTIC APPLICATIONS OF NATURAL POLY ISOPRENYLATED BENZOPHENONE DERIVATIVES AS DRUGS/MEDICAMENTS” (priority 2003, published 2008)",
  "key": {"[1]": {"tested_on": "Propionibacterium acnes ATCC 11827", "test": "Anti-microbial activity against Propionibacterium acnes (disk zone of inhibition on Reinforced Clostridial Agar)", "type": "cell-based", "conditions": "48 hours at 37° C., anaerobic", "description": "Propionibacterium acnes was cultured in an anaerobic chamber (Coy Laboratory, USA with an automatic lock purge system). The growth standardization was ensured by culturing the organism in different culture media. The anaerobic conditions were ensured initially with Nitrogen gas and then a mixture of Nitrogen, Hydrogen and Carbon dioxide in a ratio of 80:10:10. A two gas tank arrangement was made wherein only Nitrogen was connected to the transfer chamber and the mixed gas to the main chamber using Gassing Manifold (Hrishi Biotech. Pune, India). The anaerobic media were prepared by heating the media while passing the mixture of gases Nitrogen and Carbon dioxide in a ratio of 4:1 simultaneously. A redox indicator reazurin=0.001% was added to the media. The indicator is colorless in an anaerobic environ and turns blue otherwise. It was dispensed to 30 ml, 20 ml and 10 ml vials sealed with rubber and aluminium clamps and sterilized by autoclaving at 121° C. for 15 minutes.\nPropionibacterium acnes ATCC 11827 was sub cultured from broth cultures into vials containing fresh medium. The cultures were then incubated for 48 hours at 37° C. The optical density of the culture at 625 nm was maintained between 0.64 and 0.80 which corresponded to approximately 12×10^6 cells/ml (4.0 MC Mc Farland standard). The anti-microbial susceptibility testing was carried on Reinforced Clostridial Agar (RCA). 0.3 ml of P. acnes culture was inoculated into the culture plates. Culture plates were impregnated with disks comprising varying concentrations of the test naturally occuring poly isoprenylated benzophenone derivatives. The plates were incubated in anaerobic chambers at 37° C. for 48 hours. The test naturally occuring poly isoprenylated benzophenone derivatives were prepared with DMSO as vehicle. The controls included DMSO and Clindac A (Clindamycin Phosphate Gel 1% w/w). The zone of inhibition was measured and expressed in mm. (Table I)"}, "[2]": {"biological_target": "T1, COX 2 (Ovis aries, UniProt P79208)", "T1 construct": "purchased Cayman chemical company 560101", "T1 sequence (P79208 17-603)": "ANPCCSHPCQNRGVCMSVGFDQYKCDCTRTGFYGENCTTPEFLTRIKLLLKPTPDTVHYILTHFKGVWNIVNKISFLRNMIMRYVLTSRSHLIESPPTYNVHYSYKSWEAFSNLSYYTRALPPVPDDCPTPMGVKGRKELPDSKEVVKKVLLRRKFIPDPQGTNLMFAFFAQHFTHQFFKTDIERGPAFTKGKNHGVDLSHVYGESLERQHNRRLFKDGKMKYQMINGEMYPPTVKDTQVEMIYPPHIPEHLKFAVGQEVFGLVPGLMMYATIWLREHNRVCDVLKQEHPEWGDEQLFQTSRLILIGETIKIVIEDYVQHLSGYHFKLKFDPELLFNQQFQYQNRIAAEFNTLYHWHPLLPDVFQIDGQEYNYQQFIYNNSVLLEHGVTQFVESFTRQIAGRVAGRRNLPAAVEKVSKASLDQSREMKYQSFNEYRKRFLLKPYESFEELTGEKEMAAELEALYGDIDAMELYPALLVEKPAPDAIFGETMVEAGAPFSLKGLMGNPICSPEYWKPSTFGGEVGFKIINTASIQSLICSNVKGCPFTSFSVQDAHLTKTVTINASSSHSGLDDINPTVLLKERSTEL", "test": "COX inhibitor screening assay (Cayman, EIA), COX-2", "type": "biochemical", "conditions": "prostaglandins by EIA"}, "[3]": {"biological_target": "T2, COX-1 (Ovis aries, UniProt P05979)", "T2 construct": "purchased Cayman chemical company 560101", "T2 sequence (P05979 25-600)": "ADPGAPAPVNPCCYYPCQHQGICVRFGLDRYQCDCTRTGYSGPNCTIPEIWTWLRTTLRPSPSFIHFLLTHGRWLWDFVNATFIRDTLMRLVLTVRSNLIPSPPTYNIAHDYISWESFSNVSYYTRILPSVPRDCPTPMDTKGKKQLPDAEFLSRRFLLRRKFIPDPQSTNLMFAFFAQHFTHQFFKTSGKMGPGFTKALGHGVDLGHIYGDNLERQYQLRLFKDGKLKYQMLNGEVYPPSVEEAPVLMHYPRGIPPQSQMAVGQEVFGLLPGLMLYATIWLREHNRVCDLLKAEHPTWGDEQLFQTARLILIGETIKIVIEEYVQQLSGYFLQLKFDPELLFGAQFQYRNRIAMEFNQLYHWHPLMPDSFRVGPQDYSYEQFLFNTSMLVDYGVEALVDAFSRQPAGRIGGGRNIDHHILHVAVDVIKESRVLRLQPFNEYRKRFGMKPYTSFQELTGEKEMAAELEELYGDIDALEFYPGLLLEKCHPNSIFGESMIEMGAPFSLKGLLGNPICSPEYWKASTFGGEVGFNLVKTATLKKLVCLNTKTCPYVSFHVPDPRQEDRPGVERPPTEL", "test": "COX inhibitor screening assay (Cayman, EIA), COX-1", "type": "biochemical", "conditions": "substrate Arachidonate, prostaglandins by EIA", "description": "Principle: The COX inhibitor screening Assay was performed using the Cox inhibitory kit from Cayman chemical company (Catalog No. 560101) by Enzyme Immuno Assay method. Methodology: Enzyme (COX-1) is allowed to react on substrate Arachidonate in presence & absence of the inhibitor. The amount of prostaglandins (PGF2 ? ) produced by stannous chloride reduction of COX-derived PGFH2 are estimated by EIA (Cayman) using a broadly specific antibody that binds to all major prostaglandin compounds. The decrease in PGs released in presence of inhibitor is directly proportional to inhibition."}, "[4]": {"biological_target": "T3, Elastase from Pig pancreas (Sus scrofa, UniProt P00772)", "T3 construct": "purchased; host or cells: pig pancreas", "T3 sequence (P00772 27-266)": "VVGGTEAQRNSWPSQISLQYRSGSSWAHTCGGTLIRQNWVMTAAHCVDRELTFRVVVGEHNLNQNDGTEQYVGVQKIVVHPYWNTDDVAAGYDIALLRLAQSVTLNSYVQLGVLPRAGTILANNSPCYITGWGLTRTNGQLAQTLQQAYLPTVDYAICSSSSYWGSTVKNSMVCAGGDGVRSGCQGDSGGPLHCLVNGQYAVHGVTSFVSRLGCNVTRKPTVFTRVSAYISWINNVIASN", "test": "Anti-elastase activity (EnzChek elastase assay kit)", "type": "biochemical", "conditions": "read after 30 minutes", "description": "Principle: The assays were done using the EnzChek elastase assay kit. The substrate is DQ elastin soluble bovine neck ligament. DQ elastin is labeled with BODIPY FL dye. The non-fluorescent substrate can be digested by elastase to yield highly fluorescent fragments and in the presence of inhibitor, the fluorescence intensity is quenched. The fluorescence intensity was measured in a microplate reader ([…].) Methodology: Varying concentrations of the test material were pre-incubated for 10 minutes with the substrate DQ […]. Elastase from Pig pancreas enzyme was then added and the fluorescence intensity was measured after 30 minutes (Em: 485 nm and Ex: 520 nm.)."}},
  "note": "pIC50: −log10 of the molar value. Where two headings read alike, the source gives them in different places.",
  "data": [
    {"smiles": "CC(C)=CC[C@H]1C[C@@]23C[C@@H](CC=C(C)C)C(C)(C)[C@@](CC=C(C)C)(C(=O)C(C(=O)c4ccc(O)c(O)c4)=C2OC1(C)C)C3=O", "note": "[Cambogin 90%, Cambogin]", "values": [
      {"measurement": "Zone of Inhibition", "setting": "[1]; Conc. of the sample 0.5%", "value": 0, "unit": "mm"},
      {"measurement": "Zone of Inhibition", "setting": "[1]; Conc. of the sample 1.0%", "value": 0, "unit": "mm"},
      {"measurement": "Zone of Inhibition", "setting": "[1]; Conc. of the sample 2.0%", "value": 0, "unit": "mm"},
      {"measurement": "Zone of Inhibition", "setting": "[1]; Conc. of the sample 5.0%", "value": 0, "unit": "mm"}
    ]},
    {"smiles": "C=C(C)[C@@H](CC=C(C)C)C[C@@]12C[C@@H](CC=C(C)C)C(C)(C)[C@@](CC=C(C)C)(C(=O)C(C(=O)c3ccc(O)c(O)c3)=C1O)C2=O", "note": "[Garcinol]", "values": [
      {"measurement": "Zone of Inhibition", "setting": "[1]; Conc. of the sample 0.01%", "value": 7, "unit": "mm"},
      {"measurement": "Zone of Inhibition", "setting": "[1]; Conc. of the sample 0.03%", "value": 8, "unit": "mm"},
      {"measurement": "Zone of Inhibition", "setting": "[1]; Conc. of the sample 0.05%", "value": 10, "unit": "mm"},
      {"measurement": "Zone of Inhibition", "setting": "[1]; Conc. of the sample 0.1%", "value": 11, "unit": "mm"},
      {"measurement": "Zone of Inhibition", "setting": "[1]; Conc. of the sample 0.3%", "value": 14, "unit": "mm"},
      {"measurement": "Zone of Inhibition", "setting": "[1]; Conc. of the sample 0.5%", "value": 16, "unit": "mm"},
      {"measurement": "Zone of Inhibition", "setting": "[1]; Conc. of the sample 1.0%", "value": 18, "unit": "mm"},
      {"measurement": "Zone of Inhibition", "setting": "[1]; Conc. of the sample 2.0%", "value": 19, "unit": "mm"},
      {"measurement": "Zone of Inhibition", "setting": "[1]; Conc. of the sample 5.0%", "value": 20, "unit": "mm"},
      {"measurement": "pIC50", "setting": "[2]", "value": 4.44},
      {"measurement": "pIC50", "setting": "[3]", "value": 3.84},
      {"measurement": "IC50", "setting": "[4]; Table III, read-out: IC50 (anti-elastase, sigmoidal dose response curve) (converted)", "value": 496, "unit": "µM"},
      {"measurement": "IC50", "setting": "[4]; read-out: IC50 (anti-elastase) (converted)", "value": 498, "unit": "µM"}
    ]}
  ]
}
